In patent US8420605B2, “Hydrogel compositions” (The University of Strathclyde, priority 2005, dated 2013):
Ends that are not written are not given here. * marks the point of attachment. Fmoc = O=C(OCC1c2ccccc2-c2ccccc21)*; Cbz = O=C(OCc1ccccc1)*

Legend:
[1] = Preparation of self-assembled peptide hydrogels by pH adjustment (gel formation); format: physicochemical; settings: for pH: pH at which the gel formed at the indicated concentrations (Table 3)
Description: Fmoc peptides (from BACHEM Ltd) were weighed out into 4 ml glass vials. 2 ml purified water was added followed by sonication for 30-60 seconds. 0.5M NaOH solution was added in 50 μl droplets until a clear solution was formed. 0.1M HCl was added to the solution by stepwise addition of 50 μl followed by mixing using a vortex. pH values were estimated by transferring a spatula tip of hydrogel onto universal indicator paper.
Self-assembled scaffolds were prepared by first suspending the Fmoc-dipeptide in purified water. Upon increase of the pH by addition of concentrated NaOH (thus de-protonating the carboxylic acid group) to a value of >8, a clear solution was obtained. To this solution, concentrated hydrochloric acid was added drop wise until the pH of the solution became 7, at which point a clear, self-supporting gel was formed.
Table 3 below identifies various peptide derivatives (incorporating an aromatic stacking ligand) and mixtures thereof that formed gels at a pH of 6-8 at the indicated concentrations: […]

[2] = as above; format: physicochemical
[3] = Xu et al., J. Am. Chem. Soc. 2003, 125, 13680; cited from earlier work
[4] = Hydrogel formation from Fmoc-amino acid/di-peptide combinations (tripeptides); format: physicochemical; settings: Fmoc-AA + di-peptide combination
Source text: The inventors thought it would be sensible to retain the two consecutive phenylalanine residues in the peptide, but introduce a third amino acid immediately after the Fmoc cap and before the Phe-Phe. […] In addition, the inventors also made the tripeptide: Fmoc-Leu-Leu-Leu.

Substance | pH [1] | Gel formed? [4] | pH value for gelation [3] | further results
Fmoc-Leu-Gly-OH | 2 | – | – | Gel? ([2]; Component 1 20 mM/L, pH 2): ✓
Fmoc-L-Ala-L-Ala | – | – | 3 | –
Fmoc-Phe-Phe-Phe-OH | 7 | ✓ | – | Gel? ([1]; Component 1 5-20 mM/L, pH 7): ✓
Fmoc-Phe-Gly-OH | 3-5 | – | – | Gel? ([2]; Component 1 20 mM/L, pH 3-5): ✓
Fmoc-Ala-Phe-Phe | – | ✓ | – | –
Fmoc-D-Ala-D-Ala | – | – | 3 | –
Fmoc-Gly-L-SER | – | – | 5 | –
Fmoc-Leu-Phe-Phe | – | ✓ | – | –
Fmoc-Gly-D-Ala | – | – | 5 | –
Fmoc-Ala-Ala-OH | 3 | – | – | Gel? ([2]; Component 1 40 mM/L, pH 3): ✓

The next lines start with results.

pH [1] | Gel formed? [4] | Substance | pH value for gelation [3] | further results
– | ✓ | Fmoc-Leu-Leu-Leu | – | –
7 | – | Cbz-Leu-Leu-Leu-OH | – | Gel? ([1]; Component 1 5-20 mM/L, pH 7): ✓
3-5 | – | Fmoc-Gly-Gly-OH | 3 | Gel? ([2]; Component 1 10-40 mM/L, pH 3-5): ✓
– | ✓ | Fmoc-Val-Phe-Phe | – | –
6-8 | – | Cbz-Phe-Phe-OH | – | Gel? ([1]; Component 1 10-30 mM/L, pH 6-8): ✓
